Structures are written as SMILES.

`CN(C)C1(Cc2ccccc2)CCC(O)(c2cc3ccccc3o2)CC1` (centres undefined): the melting point – broadly, the temperature, or range, at which the solid turns liquid – was 121 to 124 °C. Turning to `O=c1[nH]c2cc(Cl)ccc2c(=O)c2c(-c3ccccc3)n[nH]c12`, the melting point lay within 328 to 331 °C. `CCN(C(=O)C(F)(F)F)c1ccc(C(=O)Nc2ccc3ccc(OC)nc3n2)cc1` had a melting point of 150 °C. `CC(C)(C)OC(=O)NCc1ccc(-c2ccc(O)cc2)cc1` came in with a melting point of 147 to 149 °C.

`O=C(c1ccc(Br)cc1F)N1CCN(c2ccncc2)CC1` gave a melting point of 125 to 126 °C. The molecule `Clc1ccc(C2CCN3c4ccccc4C4=NCCN4C23)cc1` (centres undefined) displayed a melting point of 158 to 160 °C.

`CC(C)(C)c1cc(OCCCCC#N)cc(C(C)(C)C)c1` displayed a melting point of 61 to 64 °C. In the case of `CCCCCCCCCCCCNC(=O)c1cc(-c2cc(Cl)cc(Cl)c2)c(OCC(=O)O)c(-c2cc(Cl)cc(Cl)c2)c1`, the melting point lay within 139 to 144 °C. `Cc1oc(-c2ccccc2)nc1COc1ccc(COc2nn(-c3ccccc3)cc2CO)cc1`: the melting point fell in the range of 118 to 119 °C.

Turning to `CCOC(=O)c1cc(NC(C)=O)c(=O)[nH]c1C(=O)OCC`, the melting point was 149 to 151 °C. `O=c1[nH]c2ccccc2n1CCN1CCC(Cc2c[nH]c3ccc(F)cc23)CC1` registered a melting point of 220 °C.

`CN(C)N=Nc1cc([N+](=O)[O-])sc1C(N)=O` yielded a melting point of 240 to 246 °C. Take `CCC(=O)SCC(Cc1ccccc1)C(=O)Nc1cccc(C(=O)O)c1C` (centres undefined): the melting point is 163 to 165 °C.

Consider `COC(=O)C(=COC(F)F)c1ccccc1CBr`, for which the melting point lay within 63 to 67 °C. Regarding `O=C1CCC2=C1C(c1ccc(F)c(Br)c1)C1=C(CCS1)N2` (centres undefined), the melting point was above 260 °C. `CS(=O)(=O)c1ccc(-c2cnn(CC(=O)c3ccccc3)c(=O)c2-c2ccc(F)cc2)cc1` gave a melting point of 228 to 230 °C. In the case of `COc1cc(-c2nc3ccc(OCCN(C(C)C)C(C)C)cc3n2Cc2ccccc2)cc(OC)c1OC`, the melting point came out at 101 °C. The molecule `COc1ccccc1C=CC=C(CC(N)C(=O)O)C(=O)O` (centres undefined) yielded a melting point of 187 to 189 °C.

In turn, `CC(C)CC(C(=O)O)c1cc(Cl)c(-c2ccc(Cl)c(Cl)c2)c(OCC2CC2)c1` (centres undefined) had a melting point of 118 to 119 °C. In the case of `O=C1COC(CCc2ccccc2)CN1` (centres undefined) it was 100 to 102 °C; in that of `O=C(Cn1c(-c2ccc(Cl)cc2)nc2cccnc21)c1ccccc1`, 211 to 212 °C; in that of `O=C1CCC(N2Cc3c(NCc4cccc(Cl)c4)cccc3C2=O)C(=O)N1` (centres undefined), 253 to 255 °C. To `O=C(N[C@H]1CC[C@H](CCN2CCN(c3nccc4c3CCO4)CC2)CC1)c1ccc(N2CCOCC2)nc1` belongs 222 °C. As for `COc1nc(NCCc2ccc(OC(F)F)cc2)nc(-c2ccc(Cl)c(C(C)(C)O)c2)n1`, the melting point turned out to be 127 °C. For the molecule `Cc1nnc2n1-c1ccc(C(=O)O)cc1C(c1ccccc1Cl)=NC2`, the melting point fell in the range of 169 to 173 °C. For `O=c1ccn2c(n1)CN=C(c1ccccc1)c1cc(Cl)ccc1-2`, the melting point fell in the range of 208 to 209 °C. As for `c1ccc(-c2ccc(-c3nc4c5ccccc5ccn4n3)cc2)cc1`, the melting point was 203 to 205 °C. For `COc1cc(CC(=O)CCNCCOc2ccc(C(=O)O)cc2OC)ccc1NC(=O)Nc1ccccc1F`, the melting point fell in the range of 105 to 110 °C. `CCOc1ccc(Nc2c([N+](=O)[O-])cc([N+](=O)[O-])c(Cl)c2C(=O)O)cc1` showed a melting point of 202 to 206 °C.

As to `CC1=NN=C(N2N=C(c3ccc([N+](=O)[O-])cc3)c3cc4c(cc3CC2C)OCO4)SC1` (centres undefined), the melting point lay in the range of 203 to 204 °C.

As to `O=C(Nc1nc2ccccc2o1)C(Cc1ccc(F)cc1)c1ccc(F)cc1F` (centres undefined), the melting point amounted to 178 °C. In the case of `COC(=O)c1nc(-c2ccc(Cl)c(OC)c2F)nc2ncn(C)c12` it was 197 to 198 °C; in that of `COc1ccc(S(=O)(=O)NCC(C(=O)NO)C2(CC(C)C)CCN(CCc3ccccc3)C2=O)cc1` (centres undefined), 195 to 196 °C. As to `COc1ccc2c(c1)C(=O)c1ccc(Nc3ccc(F)c(F)c3F)cc1CC2`, the melting point was 128 °C. For `CC(=O)NCCCc1cccc2c1CCO2`, the melting point lay in the range of 66 to 67 °C. Consider `CC1=CC=CC(O)(C(=N)N)C1C` (centres undefined), for which the melting point lay in the range of 110 to 111 °C. `CC(=O)N1c2ccccc2-c2c([N+](=O)[O-])cnn2C1c1ccccc1` (centres undefined) returned a melting point of 156 to 157 °C. Molecule `COc1ccc(C=CC(=O)O)cc1-c1cc2c(cc1OCCCCCCCC(=O)O)C(C)(C)CCC2(C)C` yielded a melting point of 212 to 214 °C. For the molecule `O=c1[nH]c2ccc(F)cc2c(=O)n1CCS`, the melting point is 240 to 242 °C. `O=C(O)c1ccc(CN2C(=O)C3CCCC3=Nc3ccc(Cl)cc32)cc1` (centres undefined) gave a melting point of 251 to 255 °C. The molecule `COc1cc(C2C3=C(COC3=O)Nc3ccc4cn[nH]c4c32)ccc1F` (centres undefined) displayed a melting point of 307 to 309 °C. With `CC(C)(CN)c1ccc(-n2c(-c3cc(-c4cnc5ccccc5c4)ccn3)c[nH]c2=O)cc1`, the melting point fell in the range of 244 to 247 °C. In turn, `CCCCCCCCCCCCCCCCC[C@@H](O)CC(=O)OC` came in with a melting point of 64 to 64.5 °C. To `Cc1cc(N)n(-c2c(Cl)cc(Cl)cc2Cl)n1` belongs 132 to 134 °C; to `CCc1cc2[nH]c(=O)ccc2c(CC)n1`, 168 to 169 °C.

In the case of `OC(CN1CCC(C(O)c2ccccc2)CC1)c1ccccc1` (centres undefined), the melting point was found to be 104 °C. In the case of `N#CN=c1[nH]c2cc(Cl)c(Cl)c([N+](=O)[O-])c2[nH]c1=O` it was 280 to 285 °C. In the case of `COC(=O)C1=CCC2CC(=O)C12` (centres undefined) it was 58 to 61 °C. As for `CSC(=CC(=O)c1cnccn1)SC`, the melting point worked out at 155 °C. To `CCOC(=O)c1cnn(-c2ccc(C)cc2)n1` belongs 61 to 62 °C. To `COC(=O)[C@H](Cc1cc(C)c(OCc2cccc3nc(-c4ccccc4)oc23)c(C)c1)NC(=O)OC(C)(C)C` belongs 116 to 117 °C; to `O=C(Nc1ccccc1)Nc1cccnc1Cl`, 178 to 180 °C. Take `O=C(c1cc(N2CCC3(CC2)OCCO3)ccn1)N(O)Cc1ccccc1`: the melting point was in the range of 98 to 102 °C. In turn, `Nc1cc(-c2ccccc2CCN2CCN(c3nccn3-c3ccccc3)CC2)ccn1` gave a melting point of 140 to 142 °C. With `Oc1cnccc1CCCOc1cccnc1Sc1cccc(Br)c1`, the melting point is 169 to 171 °C.

Molecule `COC(=O)c1ccccc1S(=O)(=O)NC(=O)Nc1cc(C)nc(C)n1` gave a melting point of 125 to 127 °C. For `CCCC(=O)Nc1n[nH]c2cc(-c3ccc(OC(F)(F)F)cc3)ccc12`, the melting point came to 234 °C. In the case of `CC(C)COCCOc1ccc(OCC(O)CNCCNC(=O)N(C)C)cc1` (centres undefined), the melting point is 75 °C. To `OC[C@H]1OC[C@@H](n2c(NC3CC3)nc3cc(Cl)c(Cl)cc32)C[C@@H]1O` belongs 98 to 99 °C. As to `O=S(=O)(NCCCCCOc1ccc(-n2ccnc2)cc1)c1ccc(Br)cc1`, the melting point fell in the range of 137 to 138 °C. `CCc1cc(Nc2ccc(-c3ccccc3C#N)cc2)n2nccc2n1` returned a melting point of 247 to 248 °C. `O=c1nc(-c2ccccc2)c2cc([N+](=O)[O-])ccc2[nH]1` came in with a melting point above 300 °C. In turn, `Cc1ccc(C)c2[nH]c(N)nc12` came in with a melting point of 164 to 170 °C. For the molecule `CC(=NO)c1ccncc1`, the melting point was 154 to 155 °C. Take `CN(CCn1ncc(-c2ccccc2)cc1=O)CC(O)c1ccc(NS(C)(=O)=O)cc1` (centres undefined): the melting point came to 108 °C. To `Cc1ccc(SC(C#N)c2cccc(C(=O)c3ccccc3)c2)cc1` (centres undefined) belongs 79 to 79.5 °C.

As for `CCC(Cn1cncn1)(C(N)=O)c1ccc(Cl)cc1` (centres undefined), the melting point lay in the range of 139 to 140 °C. To `CS(=O)(=O)Nc1cccc(N=C2NCCN2)c1` belongs 229 to 230 °C; to `CCOC(=O)c1cc2c3ccccc3nc(C)n2c1`, 113 to 116 °C. In the case of `O=c1c2cccc3c2n(c(=O)n1CCO)-c1cc(C(F)(F)F)ccc1S3` it was 90 to 93 °C; in that of `CCCc1c2c(c(O)c3c(=O)cc(C(=O)OCC)oc13)CCCC2`, 136 to 138 °C. Molecule `Cc1cncc(C)c1-c1c(C)cc(N)cc1C` gave a melting point of 134 to 135 °C. `COCC#Cc1ncn2c1CN(C)C(=O)c1cc(F)ccc1-2` came in with a melting point of 146 to 147 °C.

In the case of `CC(C)(C)c1ccc(CSc2ccc3c(c2)OCC(=O)N3)cc1`, the melting point was 134 to 136 °C. On to `CCn1nc(-c2ccccc2)c(C(=O)CCc2ccccc2)c(N)c1=O`, for which the melting point lay within 115 to 116 °C. `C(=N\c1c(-c2ccccc2)cc(-c2ccccc2)cc1-c1ccccc1)/c1ccccn1` gave a melting point of 141 to 144 °C. For the molecule `COC(=O)c1cccc2nc(-c3ccccc3)oc12`, the melting point is 77 °C. On to `CN(C)Cc1ccc(C(=O)CCC(=O)N2CCN(c3ccc(N4C[C@H](CNC(=S)C5CC5)OC4=O)cc3F)CC2)cc1`, for which the melting point lay within 174 to 175 °C. In the case of `CCOC(=O)c1c[nH]c2c(O)c(OC)ccc2c1=O` it was 233 to 236 °C; in that of `CCOc1cccc(-c2cnc3[nH]cc(C(=O)C(C)(C)C)c3n2)c1`, 195 to 196 °C; in that of `COc1ccc2c(c1)CCc1c-2n(-c2ccccc2)c2ncccc2c1=O`, 234 to 238 °C. Molecule `CNC(=O)N(O)C(C)C#Cc1ccc(C)cc1` (centres undefined) returned a melting point of 137 to 138 °C. `O=C(O)c1cccc(Nc2nc(Oc3ccccc3)nc(Oc3ccc(Cl)cc3)n2)c1` yielded a melting point of 244 to 247 °C. In turn, `CC(C#CCCCc1ccccc1)N(O)C(N)=O` (centres undefined) came in with a melting point of 78 to 81 °C. `CS(=O)(=O)c1ccc(-c2cnn(CC(F)(F)F)c(=O)c2Cc2ccccc2)cc1` displayed a melting point of 112 to 114 °C. In the case of `CCOC(=O)C(C#N)=Cc1c(OC)nc2c(C)cccn12` it was 127 to 129 °C. For the molecule `CN1CCc2c(c3ccccc3n2CCC(N)=S)C1`, the melting point fell in the range of 149 to 151 °C. On to `O=C1CS(=O)(=O)C(C(=O)Nc2ccc(Cl)cc2)Cc2cc3c(cc21)OCCO3` (centres undefined), for which the melting point fell in the range of 273 to 274 °C. For the molecule `COc1ccc(Cl)cc1C(=O)NC1COc2cc(C)ccc2C1=O` (centres undefined), the melting point was 177 to 178 °C.
